Source: patent US20250134860A1, “NOVEL COMPOUND, AND COMPOSITION FOR PREVENTING, ALLEVIATING OR TREATING BACTERIAL INFLAMMATION AND INFLAMMASOME-MEDIATED DISEASES, COMPRISING SAME AS ACTIVE INGREDIENT” (Quorum Bio Co., Ltd., priority 2022, published 2025)
Several values for one entry are separate records, joined by “and”; a condition that tells them apart may be missing. Equal entries are not always repeated.

Key:
P. gingivalis = assay: Inhibitory effect on P. gingivalis biofilm formation (crystal violet, OD590nm); assay type: cell-based, Porphyromonas gingivalis; details: 48 hours; for biofilm formation of P. gingivalis increased by DPD: DPD 10 μM + compound 0.002, 0.02, 0.2, 2 μM, anaerobic, OD590nm
[1] = Plasma stability in rat plasma (LC-MS/MS); assay type: in vitro ADME; details: 37° C., 0, 30, 60, 120, 240 minutes
Procedure: (§1) The compounds of Examples 1-2 and Comparative Example, and the substance used as the positive control (Eucatropine, Loterpresnol) were dissolved in DMSO to prepare a stock solution having a concentration of 10 mM. The stock solution of each test substance was then diluted to prepare 0.2 mM and 1 mM working solutions and used for the test (For the comparative example compound, 70% acetonitrile was used as a solvent, and for the compound of Example 1-2, 50% acetonitrile was used as a solvent).
(§2) The positive control and the standard solution of the test substance were placed in tubes containing two types of plasma (human and rat) at concentrations of 1 μM and 5 μM, respectively, and then incubated at 37° C. for a prescribed time (0, 30, 60, 120, 240 minutes) while shaking and mixing. At each time point, the mixture sample was dispensed in 100 μl increments into a cell culture plate (96-well plate) containing 400 μl of quench reagent to terminate the test, After centrifugation (5000×g, 10 min), 100 μl of the supernatant was taken out, mixed with 200 μl of ultrapure water, and the solution was then injected into a LC-MS/MS system to analyze the drug in each time zone. Thereby, the plasma stability of the compounds of Comparative Example and Example 1-2 was evaluated.

[2] = Plasma stability in human plasma (LC-MS/MS); assay type: in vitro ADME; details: 37° C., 0, 30, 60, 120, 240 minutes
Procedure: as §1, §2

[3] = test system: gingipain genes (rgpA, rgpB, kgp); assay: Inhibitory effect on gingipain expression of P. gingivalis (RT-qPCR); assay type: cell-based, Porphyromonas gingivalis; details: 48 hours
Procedure: The compounds of Examples were respectively treated onto the medium cultured with P. gingivalis, and the expression levels of three gingipain proteins (lysine-gingipain (Kgp), arginine-gingipain A (RgpA), and arginine-gingipain B (RgpB)) produced by P. gingivalis, which are major virulence factors and proteolytic enzymes, were confirmed.
The culture medium containing 10 μM of DPD (4,5-dihydroxy-2,3-pentane dione), which is a precursor of the bacterial signal substance (Autoinducer-2), and the culture medium containing 2 μM of the example compound or not were respectively dispensed into a cell culture plate (48 well plate), and then P. gingivalis (2×10^8 cell/ml) were inoculated for each group. The culture medium cultured with bacteria was cultured at 37° C. under anaerobic conditions (10% H2, 10% CO2, and 80% N2) for 48 hours.
After 48 hours, each culture medium was centrifuged at 13,000 rpm for 1 minute to remove the supernatant, and total RNA was extracted using easy-BLUE™ Total RNA Extraction kit (iNtRON Biotechnology, Sungnam, Korea) to synthesize cDNA, and then the expression of the gingipain gene was confirmed by real-time PCR method. cDNA was synthesized using AccuPower® CycleScript RT PreMix dN6 (Bioneer, Daejeon, Korea), and real-time (quantitative) reverse transcription PCR (RT-qPCR) was carried out using Power SYBR™ Green PCR Master Mix (Applied Biosystems, Foster City, CA, USA).
RT-qPCR amplification conditions were as follows: after enzyme activation at 95° C. for 3 minutes, denaturation at 95° C. for 10 seconds and primer annealing at 60° C. for 30 seconds were repeated 40 times, and analysis was performed using a Bio-Rad CFX Connect Real-Time PCR Detection System (Bio-Rad, Hercules, CA, USA). To normalize the expression level of the gingipain gene, the 16s rRNA gene was used, and the gene expression level was calculated using the Comparative Ct Method (ΔΔCt), which is shown in FIGS. 5a to 5c.

[4] = test system: Sprague-Dawley rat bone marrow cells; assay: Rat micronucleus test; details: positive control 20 mg/kg/day P.O., 24 hours after dosing
Procedure: Hair was removed from the administration site (subcutaneous) of the SD rats, the administration concentration of the example compounds were set to a low dose (500 mg/kg/day), a medium dose (1000 mg/kg/day), and a high dose (2000 mg/kg/day), and administered subcutaneously to the left and right […] of the test system (10 ml/kg/day each), and the compound was administered subcutaneously in divided doses to the left and right […] of the test system (10 ml/kg/day each).
24 hours after the second administration of the test substance, the femur was removed from each group to collect bone marrow cells. 0.5 mL of 10% neutral formalin was added to the bone marrow cell suspension, fixed for 5 minutes, centrifuged for 5 minutes (4° C., 1,000 rpm, Micro17TR, Hanil Science Industrial, Republic of Korea) to remove the supernatant. Then, 0.3 mL of 10% neutral formalin was added to the precipitated bone marrow cells, suspended, filtered through a cell strain, and transferred to a storage tube. The fixed bone marrow cell suspension was dropped onto a cover glass, and then covered with a slide glass coated with 20 μL of 0.05% acridine orange to prepare an observation slide. The observation slide was observed under a microscope (600× magnification, BX51, Olympus, Japan).
As an indicator of bone marrow cell proliferation inhibition, 500 total red blood cells per individual were observed, and the ratio of polychromatic red blood cells to total red blood cells (PCE/(PCE+NCE)) was calculated. As a positive control, cyclophosphamide (Cas No: 50-18-0) was administered at a dose of 20 mg/kg/day.

[5] = General symptoms and body weight in the rat micronucleus study; assay type: in vivo; details: positive control 20 mg/kg/day P.O.
Procedure: In addition, body weight was measured on the day of administration start and bone marrow collection to confirm presence/absence of changes due to administration of the substance, and the results are shown in Table 4 below.

SMILES: O=C1O/C(=C(\Br)c2ccccc2)c2ccccc21 [Comparative Example, (Z)-3-(bromo (phenyl)methylene) isobenzofuran-1 (3H)-one, reference compound]
- biofilm formation of P. gingivalis increased by DPD (P. gingivalis): inhibited in a concentration-dependent manner
- amount of the compound remaining in the plasma [1]: decreased over time
- amount of the compound remaining in the plasma [2]: decreased over time

SMILES: CN1C(=O)c2ccccc2C1=C(c1ccccc1)c1ccccc1 [Example 1-1, 3-(diphenylmethylene)-2-methylisoindolin-1-one]
- biofilm formation of P. gingivalis increased by DPD (P. gingivalis): inhibited in a concentration-dependent manner
- expression levels of three gingipain genes (rgpA, rgpB, kgp) increased by DPD ([3]; DPD 10 μM + compound 2 μM, normalized to 16s rRNA): reduced

SMILES: O=P1(N(CCCl)CCCl)NCCCO1 (stereo not shown) [CPA, cyclophosphamide]
- MNPCE/PCE, %(Mean) ([4]; group mean): 3.060%
- PCE/(PCE+NCE), %(Mean) ([4]; group mean): 33.5%
- PCE/(PCE+NCE): PCE count ([4]; individual animals, per 500 total red blood cells): 166 and 170
- MNPCE/PCE: MNPCE count ([4]; individual animals, per 4,000 PCE): 150 and 154 and 167 (2×)
- Body weight (g) 1 day after 2nd dosing, Mean ([5]; administered once, group mean): 278.9 g
- Body weight (g) 1 day after 2nd dosing ([5]; administered once, individual animals 1501-1505): 279.4 g and 281.5 g
- Body weight (g) before 1st dosing, Mean ([5]; group mean): 266.8 g
- Body weight (g) before 1st dosing ([5]; individual animals 1501-1505): 282.2 g

SMILES: CC(=O)C(=O)C(O)CO (stereo not shown) [DPD, 4,5-dihydroxy-2,3-pentanedione, reference compound]
- biofilm formation of P. gingivalis (P. gingivalis; DPD 10 μM alone compared to medium with PBS (CT)): significantly increased
- expression levels of three gingipain genes (rgpA, rgpB, kgp) ([3]; DPD 10 μM alone compared with untreated control): increased more than in the control group

SMILES: COc1ccc(C(=C2c3ccccc3C(=O)N2C)c2ccc(OC)cc2)cc1 [Example 1-3, 3-(bis(4-methoxyphenyl)methylene)-2-methylisoindolin-1-one]
- biofilm formation of P. gingivalis increased by DPD (P. gingivalis): inhibited in a concentration-dependent manner
